This assay has as its target human PDE2A1 (Homo sapiens (Human), UniProt O00408). In words: IMAP fluorescence polarization assay, human PDE2A1 (PDE selectivity panel). The note with it: for Ki: FAM cAMP 50 nM with 1000 nM cGMP. Type of assay: biochemical. As for the experimental part:
The activity of the compounds in accordance with the present invention as PDE2 inhibitors may be readily determined using a fluorescence polarization (FP) methodology (Huang, W., et al., J. Biomol Screen, 2002, 7: 215).
Dose-inhibition profiles for each compound were characterized by fitting the mP data to a four-parameter equation given below.
Selectivity for PDE2, as compared to other PDE families, was assessed using the IMAP® technology. Human PDE10A2 enzyme was prepared from cytosolic fractions of transiently transfected HEK cells. All other PDE's were GST Tag human enzyme expressed in insect cells and were obtained from BPS Bioscience (San Diego, Calif.): PDE1A (Cat#60010), human PDE2A1 (Cat#60020), PDE3A (Cat#60030), PDE4A1A (Cat#60040), PDE5A1 (Cat#60050), PDE6C (Cat#60060), PDE7A (Cat#60070), PDE8A1 (Cat#60080), PDE9A2 (Cat#60090), PDE11A4 (Cat#60110).
Assays for PDE 1 through 11 were performed in parallel at room temperature in 384-well microtiter plates with an incubation volume of 20.2 μL. Solutions of test compounds were prepared in DMSO and serially diluted with DMSO to yield 30 μL of each of ten solutions differing by 3-fold in concentration, at 32 serial dilutions per plate. […] A Labcyte POD 810 (Labcyte, Sunnyvale, Calif.) was used to dispense 200 nL from each well of the titration plate to make eleven copies of the assay plate for each titration, one copy for each PDE enzyme. A solution of each enzyme (dilution from aliquots, sufficient to produce 20% substrate conversion) and a separate solution of FAM-labeled cAMP or FAM-labeled cGMP from Molecular Devices (Sunnyvale, Calif., product # R7506 or cGMP#R7508), at a final concentration of 50 nM were made in the assay buffer (10 mM Tris HCl, pH 7.2, 10 mM MgCl2, 0.05% NaN3 0.01% Tween-20, and 1 mM DTT). Note that the substrate for PDE2 is 50 nM FAM cAMP containing 1000 nM of cGMP. The enzyme and the substrate were then added to the assay plates in two consecutive additions of 10 μL and then shaken to mix. The reaction was allowed to proceed at room temperature for 60 minutes. A binding solution was then made from the kit components, comprised of 80% Solution A, 20% Solution B and binding reagent at a volume of 1/600 the total binding solution. The enzymatic reaction was stopped by addition of 60 μL of the binding solution to each well of the assay plate. The plates were sealed and shaken for 10 seconds. The plates were incubated at room temperature for one hour, then the parallel and perpendicular fluorescence was measured using a Tecan Genios Pro plate reader (Tecan, Switzerland). The apparent inhibition constants for the compounds against all 11 PDE's was determined from the parallel and perpendicular fluorescent readings as described for PDE10 FP assay using the following apparent KM values for each enzyme and substrate combination: PDE1A (FAM cGMP) 70 nM, human PDE2A1 (FAM cAMP) 10,000 nM, PDE3A (FAM cAMP) 50 nM, PDE4A1A (FAM cAMP) 1500 nM, PDE5A1 (FAM cGMP) 400 nM, PDE6C (FAM cGMP) 700 nM, PDE7A (FAM cAMP) 150 nM, PDE8A1 (FAM cAMP) 50 nM, PDE9A2 (FAM cGMP) 60 nM, PDE10A2 (FAM cAMP) 150 nM, PDE11A4 (FAM cAMP) 1000 nM. The intrinsic PDE2 inhibitory activity of a compound which may be used in accordance with the present invention may be determined by these assays.

The structures appear in SMILES notation.

Chain of human PDE2A1 (O00408 other isoform, or with tags, fused parts or gaps): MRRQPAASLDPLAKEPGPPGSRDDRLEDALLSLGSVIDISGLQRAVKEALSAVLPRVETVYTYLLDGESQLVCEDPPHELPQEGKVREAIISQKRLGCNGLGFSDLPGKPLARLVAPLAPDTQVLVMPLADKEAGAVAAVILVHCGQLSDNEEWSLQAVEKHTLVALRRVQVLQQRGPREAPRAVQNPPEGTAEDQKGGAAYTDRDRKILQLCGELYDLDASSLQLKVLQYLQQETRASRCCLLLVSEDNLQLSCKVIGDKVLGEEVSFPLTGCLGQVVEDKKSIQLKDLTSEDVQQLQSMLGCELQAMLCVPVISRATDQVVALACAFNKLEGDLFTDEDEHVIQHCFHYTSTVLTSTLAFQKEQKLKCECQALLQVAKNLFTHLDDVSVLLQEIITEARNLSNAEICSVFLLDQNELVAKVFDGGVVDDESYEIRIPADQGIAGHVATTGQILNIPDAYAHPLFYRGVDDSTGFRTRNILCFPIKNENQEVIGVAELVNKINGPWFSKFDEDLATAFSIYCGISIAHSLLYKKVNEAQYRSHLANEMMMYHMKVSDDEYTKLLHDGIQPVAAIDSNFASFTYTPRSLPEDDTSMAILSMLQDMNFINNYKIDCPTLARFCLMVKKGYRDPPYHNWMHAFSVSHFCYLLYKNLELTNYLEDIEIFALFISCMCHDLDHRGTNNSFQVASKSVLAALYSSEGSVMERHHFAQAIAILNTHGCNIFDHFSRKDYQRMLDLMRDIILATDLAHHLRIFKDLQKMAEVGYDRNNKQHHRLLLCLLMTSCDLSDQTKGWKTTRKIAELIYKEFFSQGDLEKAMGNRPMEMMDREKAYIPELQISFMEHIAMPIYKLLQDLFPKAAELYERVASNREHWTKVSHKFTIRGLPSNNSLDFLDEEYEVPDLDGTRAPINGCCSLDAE

As for `Cc1nc(-c2cn(C(c3ccc(C(F)(F)F)cc3F)C(C)C)nn2)cc(=O)[nH]1` (single isomer, unassigned) [Example 39, (R)- or (S)-6-(1-(1-(2-fluoro-4-(trifluoromethyl)phenyl)-2-methylpropyl)-1H-1,2,3-triazol-4-yl)-2-methylpyrimidin-4(3H)-one], the Ki was found to be 7.2 nM.

As to `Cc1nc(-c2nnn3c2CCC[C@]3(C)c2ccc(OC(F)(F)F)cc2)cc(=O)[nH]1` (single isomer, unassigned) [Example 76], the Ki was 182 nM.

As to `COc1ccc(Cc2nc(-c3nnn4c3CCC[C@]4(C)c3ccc(C(F)(F)F)cc3F)cc(=O)[nH]2)cc1` (single isomer, unassigned) [Example 90], the Ki worked out at 1900 nM.

For `Cc1nc(-c2nnn3c2CCCC3c2ccc(C(F)(F)F)cc2F)cc(=O)[nH]1` (single isomer, unassigned) [Example 49, (R)- or (S)-6-(7-(2-fluoro-4-(trifluoromethyl)phenyl)-4,5,6,7-tetrahydro-[1,2,3]triazolo[1,5-a]pyridin-3-yl)-2-methylpyrimidin-4(3H)-one], the inhibition at 3 µM was 33%.

With `Cc1nc(-c2nnn3c2CCCC3(C)c2ccc(C(F)(F)F)cc2F)cc(=O)[nH]1` (single isomer, unassigned) [Example 58, (R)- or (S)-6-(7-(2-fluoro-4-(trifluoromethyl)phenyl)-7-methyl-4,5,6,7-tetrahydro-[1,2,3]triazolo[1,5-a]pyridin-3-yl)-2-methylpyrimidin-4(3H)-one], the Ki came to 1.3 nM.

For the compound `Cc1nc(-c2nnc(C(C)c3ccc(C(F)(F)F)cc3Cl)[nH]2)cc(=O)[nH]1` (single isomer, unassigned) [Example 66, (S)- or (R)-6-(5-(1-(2-chloro-4-(trifluoromethyl)-phenyl)ethyl)-4H-1,2,4-triazol-3-yl)-2-methylpyrimidin-4(3H)-one], the Ki was 525 nM.

For `Cc1nc(-c2cn(C(c3ccc(C(F)(F)F)cc3F)C3CC3)nn2)cc(=O)[nH]1` (single isomer, unassigned) [Example 41], the Ki stood at 38 nM.

Regarding `Cc1nc(-c2cn(C(C)(C)c3ccc(C4CC4)cc3Cl)nn2)cc(=O)[nH]1` [Example 34, 6-(1-(2-(2-chloro-4-cyclopropylphenyl)propan-2-yl)-1H-1,2,3-triazol-4-yl)-2-methylpyrimdin-4(3H)-one], the Ki stood at 4.9 nM.

Turning to `CCCCc1c(-c2cc(=O)[nH]c(C)n2)nnn1C(C)c1ccc(C(F)(F)F)cc1Cl` (single isomer, unassigned) [Example 46, (S)- or (R)-6-(5-butyl-1-(1-(2-chloro-4-(trifluoromethyl)phenyl)ethyl)-1H-1,2,3-triazol-4-yl)-2-methylpyrimidin-4(3H)-one], the Ki stood at 1100 nM.

Consider `Cc1nc(-c2nnn3c2CCC[C@]3(C)c2ccc(OC(F)(F)F)cc2)cc(=O)[nH]1` (single isomer, unassigned) [Example 77], for which the Ki is 2800 nM.

Turning to `Cc1nc(-c2nnn3c2CCC[C@]3(C)c2ccc(C(F)(F)F)cc2C)cc(=O)[nH]1` (single isomer, unassigned) [Example 79], the inhibition constant Ki was found to be 8.3 nM.

Regarding `Cc1nc(-c2cn(C(C)(C)c3ccc(C(F)(F)F)cc3Cl)nn2)cc(=O)[nH]1` [Example 30, 6-(1-(2-(2-chloro-4-(trifluoromethyl)phenyl)propan-2-yl)-1H-1,2,3-triazol-4-yl)-2-methylpyrimidin-4(3H)-one], the Ki was found to be 1.7 nM.

In the case of `Cc1nc(-c2nnc(C(C)(C)c3ccc(C(F)(F)F)cc3F)n2C)cc(=O)[nH]1` [Example 69, 6-(5-(2-(2-Fluoro-4-(trifluoromethyl)phenyl)propan-2-yl)-4-methyl-4H-1,2,4-triazol-3-yl)-2-methylpyrimidin-4(3H)-one], the Ki is 1130 nM.

As for `Cc1nc(-c2cn([C@@H](C)c3ccc(C(F)(F)F)cc3Cl)nn2)cc(=O)[nH]1` (single isomer, unassigned) [Example 36], the Ki was 1.7 nM.

`Cc1nc(-c2nnn3c2CCC[C@H]3c2ccc(C(F)(F)F)cc2)cc(=O)[nH]1` (mixture of isomers) [Example 47, (R)- and (S)-2-Methyl-6-(7-(4-(trifluoromethyl)phenyl)-4,5,6,7-tetrahydro-[1,2,3]triazolo[1,5-a]pyridin-3-yl)pyrimidin-4(3H)-one]: the inhibition at 3 µM was found to be 48%.

For the compound `COc1cccc(Cc2nc(-c3nnn4c3CCCC4(C)c3ccc(C(F)(F)F)cc3F)cc(=O)[nH]2)c1` (single isomer, unassigned) [Example 91, (S)- or (R)-6-(7-(2-Fluoro-4-(trifluoromethyl)phenyl)-7-methyl-4,5,6,7-tetrahydro-[1,2,3]triazolo[1,5-a]pyridin-3-yl)-2-(3-methoxy-benzyl)pyrimidin-4(3H)-one], the Ki was found to be 0.56 nM.

Consider `Cc1nc(-c2cn([C@@H](C)c3ccc(C(F)(F)F)cc3Cl)nn2)cc(=O)[nH]1` (single isomer, unassigned) [Example 35], for which the Ki was determined as 41.5 nM.

Regarding `CCc1ccc(C(C)n2ncc(-c3cc(=O)[nH]c(C)n3)n2)c(Cl)c1` (single isomer, unassigned) [Example 8, (S)- or (R)-6-(2-(1-(2-chloro-4-ethylphenyl)ethyl)-2H-1,2,3-triazol-4-yl)-2-methylpyrimidin-4(3H)-one], the Ki was about 1550 nM.

Regarding `Cc1nc(-n2ncc([C@H](C)c3ccc(C(F)(F)F)cc3Cl)n2)cc(=O)[nH]1` (single isomer, unassigned) [Example 83], the inhibition constant (Ki) was found to be 4.2 nM.

As to `Cc1nc(-c2nnn3c2CCCCC3(C)c2ccc(C(F)(F)F)cc2F)cc(=O)[nH]1` (single isomer, unassigned) [Example 93, (S)- or (R)-6-(8-(2-Fluoro-4-(triflouromethyl)phenyl)-8-methyl-5,6,7,8-tetrahydro-4H-[1,2,3]triazolo[1,5-a]azepin-3-yl)-2-methylpyrimidin-4(3H)-one], the Ki was 67 nM.

Take `Cc1nc(-c2cnn(C(C)c3ccc(C(F)(F)F)cc3C)n2)cc(=O)[nH]1` (single isomer, unassigned) [Example 6, (S)- or (R)-2-methyl-6-(2-(1-(2-methyl-4-(trifluoromethyl)phenyl)ethyl)-2H-1,2,3-triazol-4-yl)pyrimidin-4(3H)-one]: the Ki was about 1900 nM.

In the case of `CCC1(c2ccc(C(F)(F)F)cc2)CCCc2c(-c3cc(=O)[nH]c(C)n3)nnn21` (single isomer, unassigned) [Example 56, (R)- or (S)-6-(7-ethyl-7-(4-(trifluoromethyl)phenyl)-4,5,6,7-tetrahydro-[1,2,3]triazolo[1,5-a]pyridin-3-yl)-2-methylpyrimidin-4(3H)-one], the Ki is 616 nM.

As for `Cc1nc(-c2cn(C(C)c3cc(F)c(C(F)(F)F)cc3F)nn2)cc(=O)[nH]1` (single isomer, unassigned) [Example 24, (S)- or (R)-6-(1-(1-(2,5-difluoro-4-(triufluoromethyl)phenyl)ethyl)-1H-1,2,3-triazol-4-yl)-2-methylpyrimidin-4(3H)-one], the Ki came out at 38.8 nM.

`Cc1nc(-c2nnn3c2CCC[C@@]3(C)c2ccc(C(F)(F)F)cc2)cc(=O)[nH]1` (single isomer, unassigned) [Example 54]: the Ki stood at 16.2 nM.

For the compound `CCc1ccc(C(C)(C)n2cc(-c3cc(=O)[nH]c(C)n3)nn2)c(C)c1` [Example 33, 6-(1-(2-(4-ethyl-2-methylphenyl)propan-2-yl)-1H-1,2,3-triazol-4-yl)-2-methylpyrimidin-4(3H)-one], the Ki amounted to 99.6 nM.

Values taken from patent US10358435B2, “Triazolyl pyrimidinone compounds as PDE2 inhibitors” (Merck Sharp & Dohme Corp., priority 2015, dated 2019).
